Molecules are shown by their SMILES. “And” between values parts separate entries of the source, which are not always exact repeats. Identical values can stand only once.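 Briefly, cells in 96-well plates were exposed to five compound concentrations for 48 h, and endpoints were estimated by linear interpolation. GI50 = concentration required for 50% inhibition of growth. TGI is the concentration that stops growth completely.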

Some test systems named below: HOP-92 NSCLC; SF-539 CNS; SF-295 CNS; NCI-H226 lung; NCI-H460 lung; MOLT-4 leukemia; M14 melanoma; RPMI-8226 leukemia; SK-OV-3 ovarian; SF-268 CNS.
Holding throughout (assay): NCI tumour cell line growth inhibition, 48 h

Turning to `OC(CNc1ccnc2cc(Cl)ccc12)CNC1CCCCC1` (stereo not drawn), the GI50 in the experiment on HOP-92 NSCLC is 1.42 µM; in the experiment on SF-539 CNS, 1.76 µM; in the experiment on SF-295 CNS, 2.13 µM; with NCI-H226 lung, 12.9 µM; with NCI-H460 lung, 13.8 µM; with MOLT-4 leukemia, 9.15 µM. For the same compound, the GI50 with M14 melanoma was 1.65 µM; with RPMI-8226 leukemia, 10.1 µM; in the experiment on SK-OV-3 ovarian, 10.5 µM; in the experiment with SF-268 CNS, 8.23 µM. For the same compound, the TGI with HOP-92 NSCLC was 7.12 µM; with SF-539 CNS it was 3.38 µM; with SF-295 CNS, 4.9 µM; in the experiment on NCI-H226 lung it was 34.9 µM; in the experiment on NCI-H460 lung, 30.2 µM; in the experiment with MOLT-4 leukemia, 31.9 µM. In addition, the TGI in the experiment with M14 melanoma came out at 3.11 µM; in the experiment with RPMI-8226 leukemia, 36.4 µM; in the experiment on SK-OV-3 ovarian, 32.8 µM; with SF-268 CNS, 21.9 µM.

As for `NCCCCN(Cc1nc2ccccc2[nH]1)[C@H]1CCCc2cccnc21`, the GI50 in the experiment on HOP-92 NSCLC was 2.12 µM; in the experiment with SF-539 CNS it was 13.3 µM; with SF-295 CNS, 12.8 µM; with NCI-H226 lung it was 12.5 µM; in the experiment on NCI-H460 lung, 7.47 µM; in the experiment on MOLT-4 leukemia, 17.5 µM. For the same compound, the GI50 with M14 melanoma is 13.9 µM; in the experiment on RPMI-8226 leukemia, 12 µM; in the experiment on SK-OV-3 ovarian it was 18.6 µM; in the experiment with SF-268 CNS, 9.71 µM. Further, the TGI in the experiment on HOP-92 NSCLC is 27.1 µM; with SF-539 CNS, 27.6 µM; in the experiment with SF-295 CNS it was 30.7 µM; with NCI-H226 lung it was 44.4 µM; with NCI-H460 lung it was greater than 100 µM; in the experiment on MOLT-4 leukemia it was 69.4 µM. In addition, the TGI with M14 melanoma was 30.2 µM; with RPMI-8226 leukemia, 47.6 µM; with SK-OV-3 ovarian, greater than 86.5 µM; in the experiment on SF-268 CNS it was 97.3 µM.

For `O=C(N/N=C\c1ccc(N(CCCl)CCCl)cc1Cl)c1cccnc1`, the GI50 was 15.1 µM with HOP-92 NSCLC; 33.1 µM in the experiment on SF-539 CNS; 0.565 µM with SF-295 CNS; 0.127 µM with NCI-H226 lung; 0.192 µM with NCI-H460 lung; 10.5 µM with MOLT-4 leukemia. In addition, the GI50 was 26.5 µM with M14 melanoma, 12.2 µM with RPMI-8226 leukemia, 26.6 µM with SK-OV-3 ovarian and 23.4 µM with SF-268 CNS. The TGI in the experiment with HOP-92 NSCLC was 69.1 µM; in the experiment with SF-539 CNS, greater than 100 µM; in the experiment with SF-295 CNS it was 9.97 µM; in the experiment on NCI-H226 lung, 0.604 µM; with NCI-H460 lung, 12.7 µM; in the experiment with MOLT-4 leukemia, 42.7 µM. For the same compound, the TGI is greater than 83.7 µM in the experiment with M14 melanoma, 41.4 µM in the experiment on RPMI-8226 leukemia, greater than 100 µM in the experiment on SK-OV-3 ovarian and greater than 84 µM in the experiment with SF-268 CNS.

`Oc1c(N=Nc2ccccc2)c2ccccc2c2ccc3ccccc3c12`: the TGI is greater than 100 µM with HOP-92 NSCLC; 85.2 µM in the experiment on SF-539 CNS; greater than 100 µM with SF-295 CNS; greater than 100 µM in the experiment with NCI-H226 lung; greater than 100 µM in the experiment with NCI-H460 lung; greater than 100 µM with MOLT-4 leukemia. For the same compound, the TGI with M14 melanoma, with RPMI-8226 leukemia, in the experiment on SK-OV-3 ovarian and in the experiment with SF-268 CNS was greater than 100 µM in each case.

As to `Cc1cc(=O)oc2cc(OCc3nc4ccccc4c(=O)[nH]3)ccc12`, the TGI with HOP-92 NSCLC, in the experiment on SF-539 CNS, in the experiment on SF-295 CNS, with NCI-H226 lung, with NCI-H460 lung and in the experiment with MOLT-4 leukemia was greater than 100 µM throughout. Also, the TGI with M14 melanoma, in the experiment with RPMI-8226 leukemia, with SK-OV-3 ovarian and in the experiment on SF-268 CNS was greater than 100 µM in each case.

For the compound `COc1cc(/C=C2/C(=O)NC(Cc3cc(OC)c(OC)c(C)c3OC)C(=O)N2Cc2ccccc2)c(OC)c(C)c1OC` (stereo not drawn), the TGI in the experiment with HOP-92 NSCLC is 71.9 µM; with SF-539 CNS, greater than 100 µM; in the experiment on SF-295 CNS, greater than 100 µM; in the experiment with NCI-H226 lung, greater than 100 µM; in the experiment with NCI-H460 lung it was greater than 100 µM; in the experiment on MOLT-4 leukemia it was 70.5 µM. Further, the TGI in the experiment with M14 melanoma is greater than 100 µM; in the experiment with RPMI-8226 leukemia, 91.4 µM; with SK-OV-3 ovarian it was greater than 100 µM; in the experiment with SF-268 CNS, greater than 100 µM.

`CNc1nc(N(C)C)nc(N(C)C)n1`: the GI50 in the experiment with HOP-92 NSCLC was > 100 µM and 277 µM; in the experiment on SF-539 CNS, > 100 µM and 1350 µM; in the experiment on SF-295 CNS, > 100 µM and 1130 µM; in the experiment on NCI-H460 lung it was > 100 µM and 894 µM; in the experiment on MOLT-4 leukemia it was > 100 µM and 1810 µM; in the experiment on RPMI-8226 leukemia it was > 100 µM and 1500 µM. For the same compound, the GI50 is > 100 µM and 1390 µM in the experiment with SK-OV-3 ovarian; > 100 µM and 2680 µM in the experiment with SF-268 CNS. Besides, the TGI with HOP-92 NSCLC is > 100 µM and 809 µM; in the experiment with SF-539 CNS, > 100 µM and 3580 µM; with SF-295 CNS it was > 100 µM and 2440 µM; in the experiment with NCI-H226 lung, 2530 µM; in the experiment with NCI-H460 lung, > 100 µM and 3000 µM; with MOLT-4 leukemia it was > 100 µM and 7060 µM. For the same compound, the TGI in the experiment with M14 melanoma is 2600 µM; in the experiment on RPMI-8226 leukemia, > 100 µM and 2940 µM; in the experiment on SK-OV-3 ovarian, > 100 µM and 3640 µM; in the experiment with SF-268 CNS it was > 100 µM and 6220 µM.

For the compound `CCOC1C=CCCO1` (stereo not drawn), the TGI with HOP-92 NSCLC, with SF-539 CNS, in the experiment on SF-295 CNS, with NCI-H226 lung, in the experiment on NCI-H460 lung and in the experiment on MOLT-4 leukemia was greater than 100 µM throughout. In addition, the TGI with M14 melanoma, with RPMI-8226 leukemia, with SK-OV-3 ovarian and in the experiment on SF-268 CNS was greater than 100 µM each time.

Regarding `C=C1C(=O)O[C@H]2[C@H]1CC/C(CNS(=O)(=O)c1cccc3ccccc13)=C\CC[C@@]1(C)O[C@@H]21`, the GI50 was 1.11 µM with HOP-92 NSCLC; 1.77 µM in the experiment with SF-539 CNS; 5.49 µM with SF-295 CNS; 13.2 µM in the experiment on NCI-H226 lung; 4.28 µM in the experiment with NCI-H460 lung; 1.87 µM in the experiment on MOLT-4 leukemia. Besides, the GI50 with M14 melanoma is 1.53 µM; in the experiment with RPMI-8226 leukemia, 1.58 µM; in the experiment with SK-OV-3 ovarian, 12.1 µM; in the experiment on SF-268 CNS it was 3.74 µM. The TGI with HOP-92 NSCLC was 2.8 µM; in the experiment with SF-539 CNS, 4.02 µM; in the experiment on SF-295 CNS it was 19.2 µM; with NCI-H226 lung, 33 µM; in the experiment on NCI-H460 lung, 17 µM; in the experiment with MOLT-4 leukemia, 5.27 µM. The TGI with M14 melanoma was 3.32 µM; with RPMI-8226 leukemia, 4.43 µM; in the experiment with SK-OV-3 ovarian, 24.5 µM; in the experiment on SF-268 CNS it was 15.1 µM.

The record behind these values is PubChem BioAssay (NCI).
